# Data published in US11466006B2, “Dual selective PI3 delta and gamma kinase inhibitors” (Rhizen Pharmaceuticals SA, priority 2013, dated 2022).
# Where two headings read alike, the source gives them in different places.
# Legend:
# PI3K gamma = target: T1, PI3K gamma (Mus musculus, UniProt Q9JHG7); test: c5a induced AktS473 phosphorylation in RAW 264.7 macrophages (PI3Kγ selectivity); type: cell-based; conditions: read-out: Cellular IC50 PI3K gamma (c5a induced pAKT in RAW macrophages)
# T1 construct: endogenous in cells; host or cells: RAW 264.7 macrophages
# T1 sequence (Q9JHG7 whole entry): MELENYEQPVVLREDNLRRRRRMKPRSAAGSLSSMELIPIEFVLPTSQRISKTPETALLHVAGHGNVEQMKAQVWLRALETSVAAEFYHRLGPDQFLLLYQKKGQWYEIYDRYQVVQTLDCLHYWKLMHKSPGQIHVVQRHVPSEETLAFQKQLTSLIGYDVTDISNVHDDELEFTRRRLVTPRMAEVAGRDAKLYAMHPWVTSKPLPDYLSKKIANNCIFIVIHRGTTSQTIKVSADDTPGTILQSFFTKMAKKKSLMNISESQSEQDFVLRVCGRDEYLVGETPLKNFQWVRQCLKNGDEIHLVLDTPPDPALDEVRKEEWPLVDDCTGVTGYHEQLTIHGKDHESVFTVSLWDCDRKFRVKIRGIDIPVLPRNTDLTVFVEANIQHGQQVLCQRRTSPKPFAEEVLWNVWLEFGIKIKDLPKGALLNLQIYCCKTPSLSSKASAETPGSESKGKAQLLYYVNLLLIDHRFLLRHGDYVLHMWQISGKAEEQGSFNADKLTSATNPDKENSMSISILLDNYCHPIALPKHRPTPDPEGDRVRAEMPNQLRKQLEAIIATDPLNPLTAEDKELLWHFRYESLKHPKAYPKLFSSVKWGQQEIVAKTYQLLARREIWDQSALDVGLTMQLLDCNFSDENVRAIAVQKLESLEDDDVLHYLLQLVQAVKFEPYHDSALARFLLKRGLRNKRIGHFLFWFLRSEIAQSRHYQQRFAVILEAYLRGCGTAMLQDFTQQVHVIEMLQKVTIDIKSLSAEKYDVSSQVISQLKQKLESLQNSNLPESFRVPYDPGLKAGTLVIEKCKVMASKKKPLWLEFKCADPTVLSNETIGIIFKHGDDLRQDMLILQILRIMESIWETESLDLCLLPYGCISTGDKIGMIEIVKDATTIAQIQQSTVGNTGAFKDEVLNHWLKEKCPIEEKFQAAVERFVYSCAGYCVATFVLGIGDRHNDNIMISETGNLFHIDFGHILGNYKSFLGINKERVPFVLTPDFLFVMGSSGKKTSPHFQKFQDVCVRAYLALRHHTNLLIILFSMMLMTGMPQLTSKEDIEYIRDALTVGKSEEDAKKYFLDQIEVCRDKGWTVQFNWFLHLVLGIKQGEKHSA
# Experimental: The objective of this study was to determine the effect of Compound A1 on PI3Kγ kinase mediated c5a induced AktS473 phosphorylation in RAW 264.7 macrophages. • RAW 264.7 cells were treated with desired concentrations of the test compound for 15 min. 1 ml of 2× c5a was added such that the final concentration was 50 ng/ml and incubated for 15 min. • Media was discarded and washed with 1 ml of ice-cold 1× PBS. • 250 μl of cell lysis buffer was added and incubated on ice for 30 min. • Samples were centrifuged and supernatant was stored at −80° C. until analysis • Samples were analyzed by Western Blotting using pAKT (S473) as the primary and anti-rabbit IgG-HRP as a secondary antibody. • Intensity of the bands was determined using ImageJ 1.42q (NIH, USA) and normalized to Actin (loading control). Data was plotted using GraphPad Prism (Version 5.02).
# [1] = tested on: primary cells derived from B-cell lymphomas; test: Anticancer activity in patient derived B-lymphoma cells (Annexin V/PI); type: cell-based; conditions: 4 μM, 48-h incubation
# Experimental: Primary cells from lymphoid tumors were exposed to the test compound [Compound A1] to assess the induction of cell death. Cells were derived from diffuse large B-cell lymphoma (DLBCL), mantle cell lymphoma (MCL), splenic marginal zone lymphoma (SMZL), extranodal marginal zone lymphoma (EMZL), or chronic lymphocytic leukemia (CLL, no.=1). Cells were treated with desired concentrations of the compound and apoptosis (Annexin V/PI) was assessed by flow-cytometry after a 48-h incubation period.
# [2] = tested on: anti-human CD3/CD28 co-stimulated primary T-cells; test: Cytokine assay in anti-human CD3 and CD28 co-stimulated primary T-cells (ELISA); type: cell-based; conditions: T-cell, anti-human CD3-CD28 induced, 24 h, eight independent experiments
# Experimental: The objective of this study was to assess the inhibitory potential of Compound A1 on cytokines produced by anti-human CD3/CD28 co-stimulated primary T-cells.
# • Plates were coated with 50 μl of anti-human CD3 at a concentration of 100 ng/ml either overnight at 4° C. or for 2 h at 37° C. After incubation, plates were washed twice with sterile PBS to remove unbound antibody. • Isolated human T-cells were re-suspended to 0.625×10^6 cells per ml in 1.5 ml tubes and 1 μl of drug dilution (1000×) was added. A DMSO blank and un-induced blank were maintained. • Cells were incubated with compound at room temperature for 30 min and then added to anti-human CD3 coated wells of a 96-well plate, 240 μl each. Anti-human CD28 was added immediately, 10 μl (25×) per well. • Plate was incubated at 37° C., 5% CO2 for 24 h. • Plates were centrifuged at 4000 rpm at room temperature, supernatant was collected and stored at −20° C. • Cytokines were determined using a commercial ELISA kit with absorbance read at 450 and 570 nm.
# Female Wistar rats = test: Lipopolysaccharide-induced rat air pouch model of inflammation; type: in vivo; conditions: Neutrophil, oral, 1 h before LPS, pouch fluid at 6 h, read-out: ED50, reduction of neutrophil migration into the rat air pouch
# Experimental: Female Wistar rats (175-200 g) were acclimatized for seven days prior to the start of the experiment Animals were randomly distributed to various groups based on their body weights Animals were anaesthetised with ether and subcutaneous air pouches were made by injecting 20 ml of sterile air under the skin in the intra-scapular area (day 0) and maintained with a second 10-ml injection of sterile-filtered air on day 4. On day 6, oral treatment was commenced 1 h prior to induction of inflammation by s.c. injection of LPS solution on day 6. A volume of 5-ml of LPS solution dissolved in sterile saline (100 μg/kg) was injected into each pouch. Samples of pouch fluid were taken at 6 h after administration of LPS by flushing the pouch with 5 ml of sterile saline and withdrawing 4 ml of fluid. The numbers of leukocytes present in pouch fluid was determined microscopically using a haemocytometer. Differential cell content was determined by microscopic examination of fluid smears stained with Diff-Quik.
# male Balb/c mice = test: Acute cigarette smoke induced cell infiltration in male Balb/c mice; type: in vivo, mouse; conditions: 0.3, 1, or 3 mg/kg/BID, cigarette smoke exposed mice
# Text: Animals (male Balb/c mice) are to be acclimatized for seven days prior to the start of the experiment. Animals are then to be randomly distributed to various groups based on their body weights. On day 1, mice is to be administered test compound or vehicle by oral/intranasal route and after 1 hr test compound administration animals are to be placed in whole body exposure box. On day 1 and d2 mice are exposed to the mainstream smoke of 6 cigarettes and of 8 cigarettes on day 3, and of 10 cigarettes on day 4. […] The total number of white blood cells is to be determined in BAL fluid and blood using a blood cell counter and adjusted to 1×10^6 cell/ml. Differential cell count is calculated manually. […] The number of each cell type among 300 white blood cells in the cell smear are to be determined and expressed as a percentage, and the number of neutrophils and macrophages in each BAL fluid are to be calculated. • Results: As depicted in FIGS. 7A and 7B, Compound A1 reduced macrophages and neutrophil infiltration into BALF thereby indicating a therapeutic role in chronic obstructive pulmonary diseases Assay 16: Ovalbumin-Induced Nasal Eosinophil and Neutrophil Accumulation in Mice
smiles,measurement,setting,value
"CC[C@H](Nc1ncnc2[nH]cnc12)c1oc2ccccc2c(=O)c1-c1cccc(F)c1 [Compound A1, (S)-2-(1-(9H-purin-6-ylamino)propyl)-3-(3-fluorophenyl)-4H-chromen-4-one]",IC50,PI3K gamma,22.3 nM
same,"cell death (apoptosis, Annexin V/PI)",[1],increase in cell death
same,IC50,"[2]; read-out: IC50, IFNγ",9.54 nM
same,IC50,"[2]; read-out: IC50, IL2",20.6 nM
same,IC50,"[2]; read-out: IC50, TNFα",24 nM
same,ED50,Female Wistar rats,2.6 mg/kg
same,macrophages and neutrophil infiltration into BALF,male Balb/c mice,reduced
